Results: patent US20260265189A1, “NOVEL COMPOUND, AND PHARMACEUTICAL COMPOSITION COMPRISING SAME AS ACTIVE INGREDIENT” (SAPIENSBIO INC., priority 2022, published 2026)

test system: α-SMA expression in MRC5 cells; experiment: inhibition of α-SMA expression in MRC5 cells, image screening method; assay type: cell-based; conditions: Homo sapiens; MRC5, compound 10 μM, TGF-β1 5 ng/mL, 72 hours, relative to TGF-β1 alone; read-out: Inhibitory activity (α-SMA expression inhibition)
Method: The ability of the compounds according to the present invention to inhibit the expression of α-SMA, which is a biomarker for pulmonary fibrosis, was evaluated by an image screening method. MRC5 cells were treated with the compound (10 μM) or DMSO under the condition of TGF-31 (5 ng/mL). 72 hours later, the cells were fixed with a 4% formaldehyde solution, treated with a 0.1% Triton-x100 solution, and treated with a 1% BSA solution to mask non-specific binding caused by antibodies. Anti-α-SMA-FITC (Sigma Aldrich) and anti-GAPDH (Cell Signaling Technology) were used as primary antibodies, and anti-mouse-TRITC was used as a secondary antibody. Imaging and analysis of the results were performed using Cytation5_Gen5_Version 3.12.08 (Bio Tek). Relative to the α-SMA expression level when TGF-31 was treated alone, the α-SMA expression level when both the compound and TGF-31 were treated was calculated as the ability of α-SMA expression inhibition of the corresponding compound.

`O=C(N[C@@H]1CCNC1)N1CCN(c2ccc(F)cc2)c2cc(F)ccc21` [Compound 1, (R)-6-fluoro-4-(4-fluorophenyl)-N-(pyrrolidin-3-yl)-3,4-dihydroquinoxaline-1(2H)-carboxamide] and `O=C(N[C@H]1CCNC1)N1CCN(c2ccc(F)cc2)c2cc(F)ccc21` [Compound 8, (S)-6-fluoro-4-(4-fluorophenyl)-N-(pyrrolidin-3-yl)-3,4-dihydroquinoxaline-1(2H)-carboxamide] cannot be ordered by inhibition at 10 µM: ≥ 70% for the first, ≥ 70% for the second.

`CN1CC[C@@H](NC(=O)N2CCN(c3ccc(F)cc3)c3cc(F)ccc32)C1` [Compound 2, (R)-6-fluoro-4-(4-fluorophenyl)-N-(1-methylpyrrolidin-3-yl)-3,4-dihydroquinoxaline-1(2H)-carboxamide] and `CN1CC[C@H](NC(=O)N2CCN(c3ccc(F)cc3)c3cc(F)ccc32)C1` [Compound 9, (S)-6-fluoro-4-(4-fluorophenyl)-N-(1-methylpyrrolidin-3-yl)-3,4-dihydroquinoxaline-1(2H)-carboxamide] cannot be ordered by inhibition at 10 µM: ≥ 70% for the first, 50 to 70% for the second.

`CC(C)N1CC[C@@H](NC(=O)N2CCN(c3ccc(F)cc3)c3cc(F)ccc32)C1` [Compound 3, (R)-6-fluoro-4-(4-fluorophenyl)-N-(1-isopropylpyrrolidin-3-yl)-3,4-dihydroquinoxaline-1(2H)-carboxamide] and `CC(C)N1CC[C@H](NC(=O)N2CCN(c3ccc(F)cc3)c3cc(F)ccc32)C1` [Compound 10, (S)-6-fluoro-4-(4-fluorophenyl)-N-(1-isopropylpyrrolidin-3-yl)-3,4-dihydroquinoxaline-1(2H)-carboxamide] cannot be ordered by inhibition at 10 µM: ≥ 70% for the first, ≥ 70% for the second.

`CC(C)CN1CC[C@@H](NC(=O)N2CCN(c3ccc(F)cc3)c3cc(F)ccc32)C1` [Compound 4, (R)-6-fluoro-4-(4-fluorophenyl)-N-(1-isobutylpyrrolidin-3-yl)-3,4-dihydroquinoxaline-1(2H)-carboxamide] and `CC(C)CN1CC[C@H](CNC(=O)N2CCN(c3ccc(F)cc3)c3cc(F)ccc32)C1` [Compound 20, (R)-6-fluoro-4-(4-fluorophenyl)-N-((1-isobutylpyrrolidin-3-yl)methyl)-3,4-dihydroquinoxaline-1(2H)-carboxamide] cannot be ordered by inhibition at 10 µM: ≥ 70% for the first, ≥ 70% for the second.

`O=C(N[C@@H]1CCN(C(=O)C(F)(F)F)C1)N1CCN(c2ccc(F)cc2)c2cc(F)ccc21` [Compound 5, (R)-6-fluoro-4-(4-fluorophenyl)-N-(1-(2,2,2-trifluoroacetyl)pyrrolidin-3-yl)-3,4-dihydroquinoxaline-1(2H)-carboxamide] and `CC(=O)N1CC[C@@H](NC(=O)N2CCN(c3ccc(F)cc3)c3cc(F)ccc32)C1` [Compound 6, (R)-N-(1-acetylpyrrolidin-3-yl)-6-fluoro-4-(4-fluorophenyl)-3,4-dihydroquinoxaline-1(2H)-carboxamide] fall in the same range of inhibition at 10 µM: 10 to 30% for the first, 10 to 30% for the second.

`CS(=O)(=O)N1CC[C@@H](NC(=O)N2CCN(c3ccc(F)cc3)c3cc(F)ccc32)C1` [Compound 7, (R)-6-fluoro-4-(4-fluorophenyl)-N-(1-(methylsulfonyl)pyrrolidin-3-yl)-3,4-dihydroquinoxaline-1(2H)-carboxamide] and `CS(=O)(=O)N[C@H]1CCN(C(=O)N2CCN(c3ccc(F)cc3)c3cc(F)ccc32)C1` [Compound 16, (S)-N-(1-(6-fluoro-4-(4-fluorophenyl)-1,2,3,4-tetrahydroquinoxaline-1-carbonyl)pyrrolidin-3-yl)methanesulfonamide] fall in the same range of inhibition at 10 µM: 10 to 30% for the first, 10 to 30% for the second.

`N[C@H]1CCN(C(=O)N2CCN(c3ccc(F)cc3)c3cc(F)ccc32)C1` [Compound 11, (S)-(3-aminopyrrolidin-1-yl)(6-fluoro-4-(4-fluorophenyl)-3,4-dihydroquinoxalin-1(2H)-yl)methanone] and `CN[C@H]1CCN(C(=O)N2CCN(c3ccc(F)cc3)c3cc(F)ccc32)C1` [Compound 12, (S)-(6-fluoro-4-(4-fluorophenyl)-3,4-dihydroquinoxalin-1(2H)-yl)(3-(methylamino)pyrrolidin-1-yl)methanone] fall in the same range of inhibition at 10 µM: 30 to 50% for the first, 30 to 50% for the second.

Compared with `CC(C)CN[C@H]1CCN(C(=O)N2CCN(c3ccc(F)cc3)c3cc(F)ccc32)C1` [Compound 13, (S)-(6-fluoro-4-(4-fluorophenyl)-3,4-dihydroquinoxalin-1(2H)-yl)(3-(isobutylamino)pyrrolidin-1-yl)methanone], `CC(C)N[C@H]1CCN(C(=O)N2CCN(c3ccc(F)cc3)c3cc(F)ccc32)C1` [Compound 14, (S)-(6-fluoro-4-(4-fluorophenyl)-3,4-dihydroquinoxalin-1(2H)-yl)(3-(isopropylamino)pyrrolidin-1-yl)methanone] is lower in inhibition at 10 µM: ≥ 70% for the first, 30 to 50% for the second.

First: CC(=O)N[C@H]1CCN(C(=O)N2CCN(c3ccc(F)cc3)c3cc(F)ccc32)C1 [Compound 15, (S)-N-(1-(6-fluoro-4-(4-fluorophenyl)-1,2,3,4-tetrahydroquinoxaline-1-carbonyl)pyrrolidin-3-yl)acetamide]
Second: CN1CCC(NC(=O)N2CCN(c3ccc(F)cc3)c3cc(F)ccc32)CC1 [Compound 30, 6-fluoro-4-(4-fluorophenyl)-N-(1-methylpiperidin-4-yl)-3,4-dihydroquinoxaline-1(2H)-carboxamide]
The inhibition at 10 µM of the first is lower: 10 to 30% for the first, 50 to 70% for the second.

Compared with `O=C(NC[C@H]1CCNC1)N1CCN(c2ccc(F)cc2)c2cc(F)ccc21` [Compound 17, (S)-6-fluoro-4-(4-fluorophenyl)-N-(pyrrolidin-3-ylmethyl)-3,4-dihydroquinoxaline-1(2H)-carboxamide], `O=C(NCC1CCNCC1)N1CCN(c2ccc(F)cc2)c2cc(F)ccc21` [Compound 33, 6-fluoro-4-(4-fluorophenyl)-N-(piperidin-4-ylmethyl)-3,4-dihydroquinoxaline-1(2H)-carboxamide] is higher in inhibition at 10 µM: 30 to 50% for the first, 50 to 70% for the second.

`CN1CC[C@H](CNC(=O)N2CCN(c3ccc(F)cc3)c3cc(F)ccc32)C1` [Compound 18, (R)-6-fluoro-4-(4-fluorophenyl)-N-((1-methylpyrrolidin-3-yl)methyl)-3,4-dihydroquinoxaline-1(2H)-carboxamide] and `CN1CC[C@@H](CNC(=O)N2CCN(c3ccc(F)cc3)c3cc(F)ccc32)C1` [Compound 25, (S)-6-fluoro-4-(4-fluorophenyl)-N-((1-methylpyrrolidin-3-yl)methyl)-3,4-dihydroquinoxaline-1(2H)-carboxamide] fall in the same range of inhibition at 10 µM: 50 to 70% for the first, 50 to 70% for the second.

`CC(C)N1CC[C@H](CNC(=O)N2CCN(c3ccc(F)cc3)c3cc(F)ccc32)C1` [Compound 19, (R)-6-fluoro-4-(4-fluorophenyl)-N-((1-isopropylpyrrolidin-3-yl)methyl)-3,4-dihydroquinoxaline-1(2H)-carboxamide] and `CC(C)N1CC[C@@H](CNC(=O)N2CCN(c3ccc(F)cc3)c3cc(F)ccc32)C1` [Compound 26, (S)-6-fluoro-4-(4-fluorophenyl)-N-((1-isopropylpyrrolidin-3-yl)methyl)-3,4-dihydroquinoxaline-1(2H)-carboxamide] fall in the same range of inhibition at 10 µM: 50 to 70% for the first, 50 to 70% for the second.

First: O=C(NC[C@H]1CCCN1)N1CCN(c2ccc(F)cc2)c2cc(F)ccc21 [Compound 21, (R)-6-fluoro-4-(4-fluorophenyl)-N-(pyrrolidin-2-ylmethyl)-3,4-dihydroquinoxaline-1(2H)-carboxamide]
Second: O=C(NCC1CC1)N1CCN(c2ccc(F)cc2)c2cc(F)ccc21 [Compound 28, N-(cyclopropylmethyl)-6-fluoro-4-(4-fluorophenyl)-3,4-dihydroquinoxaline-1(2H)-carboxamide]
The inhibition at 10 µM of the first is higher: ≥ 70% for the first, 10 to 30% for the second.

`CN1CCC[C@@H]1CNC(=O)N1CCN(c2ccc(F)cc2)c2cc(F)ccc21` [Compound 22, (R)-6-fluoro-4-(4-fluorophenyl)-N-((1-methylpyrrolidin-2-yl)methyl)-3,4-dihydroquinoxaline-1(2H)-carboxamide] and `CC(C)N1CCC[C@@H]1CNC(=O)N1CCN(c2ccc(F)cc2)c2cc(F)ccc21` [Compound 23, (R)-6-fluoro-4-(4-fluorophenyl)-N-((1-isopropylpyrrolidin-2-yl)methyl)-3,4-dihydroquinoxaline-1(2H)-carboxamide] cannot be ordered by inhibition at 10 µM: ≥ 70% for the first, ≥ 70% for the second.

`CC(C)CN1CCC[C@@H]1CNC(=O)N1CCN(c2ccc(F)cc2)c2cc(F)ccc21` [Compound 24, (R)-6-fluoro-4-(4-fluorophenyl)-N-((1-isobutylpyrrolidin-2-yl)methyl)-3,4-dihydroquinoxaline-1(2H)-carboxamide] and `CC(C)CN1CC[C@@H](CNC(=O)N2CCN(c3ccc(F)cc3)c3cc(F)ccc32)C1` [Compound 27, (S)-6-fluoro-4-(4-fluorophenyl)-N-((1-isobutylpyrrolidin-3-yl)methyl)-3,4-dihydroquinoxaline-1(2H)-carboxamide] cannot be ordered by inhibition at 10 µM: ≥ 70% for the first, ≥ 70% for the second.

`O=C(NC1CCNCC1)N1CCN(c2ccc(F)cc2)c2cc(F)ccc21` [Compound 29, 6-fluoro-4-(4-fluorophenyl)-N-(piperidin-4-yl)-3,4-dihydroquinoxaline-1(2H)-carboxamide] and `CC(C)N1CCC(NC(=O)N2CCN(c3ccc(F)cc3)c3cc(F)ccc32)CC1` [Compound 31, 6-fluoro-4-(4-fluorophenyl)-N-(1-isopropylpiperidin-4-yl)-3,4-dihydroquinoxaline-1(2H)-carboxamide] fall in the same range of inhibition at 10 µM: 50 to 70% for the first, 50 to 70% for the second.

Work on `CN1CCC(CNC(=O)N2CCN(c3ccc(F)cc3)c3cc(F)ccc32)CC1` [Compound 34] yielded an inhibition at 10 µM of 50 to 70%.
